# Columns and labels:
# [1] = target: T1, 5-hydroxytryptamine receptor 2A (Homo sapiens, UniProt P28223); assay: Affinity for 5-hydroxytryptamine 2A receptor
# [2] = target: T2, 5-hydroxytryptamine receptor 2C (Homo sapiens, UniProt P28335); assay: Affinity for 5-hydroxytryptamine 2C receptor
# T2 sequence (P28335 whole entry): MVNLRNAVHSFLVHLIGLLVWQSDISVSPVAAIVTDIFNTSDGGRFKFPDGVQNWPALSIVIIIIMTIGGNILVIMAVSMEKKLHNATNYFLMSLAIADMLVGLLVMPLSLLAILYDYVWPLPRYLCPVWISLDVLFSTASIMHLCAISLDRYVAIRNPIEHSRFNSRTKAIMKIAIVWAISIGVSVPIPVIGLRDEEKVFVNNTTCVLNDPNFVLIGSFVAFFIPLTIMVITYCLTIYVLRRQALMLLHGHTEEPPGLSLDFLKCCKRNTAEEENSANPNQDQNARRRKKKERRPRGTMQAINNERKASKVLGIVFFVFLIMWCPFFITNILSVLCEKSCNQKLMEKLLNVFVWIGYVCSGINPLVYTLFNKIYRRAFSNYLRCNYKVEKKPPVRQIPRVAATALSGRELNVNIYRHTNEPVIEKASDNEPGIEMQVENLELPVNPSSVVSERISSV
# [3] = target: Serotonin 2 receptors; 5-HT2a & 5-HT2c (Homo sapiens) (UniProt P28223+P28335); assay: Relative affinity for 5-HT2C over 5-HT2A receptors; type: protein assay
# Serotonin 2 receptors; 5-HT2a & 5-HT2c (Homo sapiens), sequence (P28223 whole entry, looked up, one chain of several): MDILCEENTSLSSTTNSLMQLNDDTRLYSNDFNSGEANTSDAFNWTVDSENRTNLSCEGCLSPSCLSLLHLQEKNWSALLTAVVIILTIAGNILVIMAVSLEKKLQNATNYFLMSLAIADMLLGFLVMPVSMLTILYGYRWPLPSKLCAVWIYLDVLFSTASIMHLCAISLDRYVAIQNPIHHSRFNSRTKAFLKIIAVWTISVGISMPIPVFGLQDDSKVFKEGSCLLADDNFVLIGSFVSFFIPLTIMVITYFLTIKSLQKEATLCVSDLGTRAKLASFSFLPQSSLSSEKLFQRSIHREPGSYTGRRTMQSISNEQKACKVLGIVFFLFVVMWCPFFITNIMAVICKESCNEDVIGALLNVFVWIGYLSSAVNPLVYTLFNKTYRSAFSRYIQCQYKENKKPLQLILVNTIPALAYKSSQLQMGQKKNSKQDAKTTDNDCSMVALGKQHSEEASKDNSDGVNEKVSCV
# [4] = target: T1, 5-hydroxytryptamine receptor 2A; assay: Binding affinity towards 5-hydroxytryptamine 2A receptor was determined at a concentration of 0.00001 mol/L
# [5] = target: T3, 5-hydroxytryptamine receptor 2C (Homo sapiens) (UniProt P28335); assay: Binding affinity towards 5-hydroxytryptamine 2C receptor was determined at a concentration of 0.00001 mol/L
# T3 sequence (whole entry): T2 sequence (P28335 whole entry)
# [6] = target: T3, 5-hydroxytryptamine receptor 2C (Homo sapiens); assay: Binding affinity towards 5-hydroxytryptamine 2C receptor was determined at a concentration of 0.000001 mol/L
# [7] = target: T1, 5-hydroxytryptamine receptor 2A; assay: Binding affinity towards 5-hydroxytryptamine 2A receptor was determined at a concentration of 0.000001 mol/L
# T1 sequence (P28223 whole entry): as the sequence (P28223 whole entry, looked up, one chain of several) above
Structure (SMILES),Ki [1],Ki [2],Ratio [3],inhibition [4],inhibition [5],inhibition [6],inhibition [7]
CC(C)Oc1ccccc1Cc1c(N)nc(SCCN2CCN(Cc3cccc(C(F)(F)F)c3)CC2)nc1N,0.121 µM,0.0086 µM,14,,,,
Nc1cc(N)nc(SCCN2CCN(Cc3ccc([N+](=O)[O-])cc3)CC2)n1,,,,89%,77%,,
COc1ccccc1Cc1c(N)nc(SCCN2CCN(Cc3cccc(C(F)(F)F)c3)CC2)nc1N,0.0604 µM,0.0055 µM,11,,,,
Nc1nc(SCCN2CCN(Cc3ccccc3C(F)(F)F)CC2)nc(N)c1Cc1ccccc1,0.0611 µM,0.0214 µM,2.9,,,,
COc1ccccc1Cc1c(N)nc(SCCN2CCN(Cc3ccccc3C(F)(F)F)CC2)nc1N,0.0477 µM,0.0077 µM,6.2,,,,
Nc1nc(SCCN2CCN(Cc3ccc([N+](=O)[O-])cc3)CC2)nc(N)c1CC1CCCCC1,,,,10%,32%,,
Nc1cc(N)nc(SCCCN2CCN(Cc3ccc([N+](=O)[O-])cc3)CC2)n1,,,,54%,21%,,
Nc1nc(SCCN2CCN(Cc3cccc(C(F)(F)F)c3)CC2)nc(N)c1Cc1ccccc1O,0.0932 µM,0.0062 µM,15,,,,
Nc1nc(SCCN2CCN(Cc3ccc([N+](=O)[O-])cc3)CC2)nc(N)c1Cc1ccccc1,,,,,,67%,99%
CCOc1ccccc1Cc1c(N)nc(SCCN2CCN(Cc3cccc(C(F)(F)F)c3)CC2)nc1N,0.0699 µM,0.0091 µM,7.7,,,,

# The remaining molecules from weak to strong by Ki [1], led by results:
Ki [1],Ki [2],Ratio [3],inhibition [4],inhibition [5],inhibition [6],inhibition [7],Structure (SMILES)
0.0446 µM,0.0049 µM,9.1,,,,,COc1cccc(Cc2c(N)nc(SCCN3CCN(Cc4cccc(C(F)(F)F)c4)CC3)nc2N)c1
0.0228 µM,0.0055 µM,4.2,,,,,Nc1nc(SCCN2CCN(Cc3ccccc3Cl)CC2)nc(N)c1Cc1ccccc1O
0.0183 µM,0.0119 µM,1.5,,,,,Nc1nc(SCCN2CCN(Cc3ccccc3Cl)CC2)nc(N)c1Cc1ccccc1
0.0125 µM,0.3 µM,0.04,,,,,COc1ccc(Cc2c(N)nc(SCCN3CCN(Cc4ccc(C)cc4)CC3)nc2N)cc1
0.0118 µM,0.0087 µM,1.4,,,,,Nc1nc(SCCN2CCN(Cc3ccccc3Cl)CC2)nc(N)c1Cc1ccccc1Cl
0.0115 µM,0.0164 µM,0.7,,,,,COc1ccc(Cc2c(N)nc(SCCN3CCN(Cc4ccccc4C)CC3)nc2N)cc1
0.0057 µM,0.0104 µM,0.6,,,,,COc1ccc(Cc2c(N)nc(SCCN3CCN(Cc4ccccc4Cl)CC3)nc2N)cc1
0.0043 µM,0.0183 µM,0.2,,,,,COc1cc(Cc2c(N)nc(SCCN3CCN(Cc4ccccc4Cl)CC3)nc2N)cc(OC)c1OC
